In ChEMBL document CHEMBL4507289, “Data for DCP probe GSM1” (2021):
The source made the active and inactive calls. The rule behind the calls is not given here.

Assays:
[1] = biological target: Tyrosine-protein kinase receptor TYRO3 (Homo sapiens) (UniProt Q06418); conditions: Compound concentration 1000.0 nM
[2] = biological target: TGF-beta receptor type-1 (Homo sapiens) (UniProt P36897); conditions: Compound concentration 1000.0 nM
[3] = biological target: Amyloid-beta precursor protein (Homo sapiens, UniProt P05067); assay: Aβ42 inhibition assay
[4] = biological target: Serine/threonine-protein kinase PknB (Mycobacterium tuberculosis) (UniProt P9WI81); conditions: Compound concentration 1000.0 nM
[5] = biological target: Ribosomal protein S6 kinase alpha-2 (Homo sapiens) (UniProt Q15349); conditions: Compound concentration 1000.0 nM
[6] = biological target: 5-hydroxytryptamine receptor 6 (Homo sapiens) (UniProt P50406); conditions: Compound concentration 10.0 uM
[7] = biological target: Hepatocyte growth factor receptor (Homo sapiens) (UniProt P08581); conditions: Compound concentration 1000.0 nM
[8] = biological target: Ephrin type-A receptor 2 (Homo sapiens) (UniProt P29317); conditions: Compound concentration 1000.0 nM
[9] = biological target: Aurora kinase C (Homo sapiens) (UniProt Q9UQB9); conditions: Compound concentration 1000.0 nM
[10] = system: Epidermal growth factor receptor (Homo sapiens), P00533 [L858R,T790M]; conditions: Compound concentration 1000.0 nM
[11] = biological target: Sigma intracellular receptor 2 (Homo sapiens, UniProt Q5BJF2); assay: GPCRScan assay: inhibition of Sigma 2; parameters: radioligand conc. used [nm] 5.0, parental cells HEKT
[12] = biological target: Mitogen-activated protein kinase kinase kinase 19 (Homo sapiens) (UniProt Q56UN5); conditions: Compound concentration 1000.0 nM
[13] = biological target: Ankyrin repeat and protein kinase domain-containing protein 1 (Homo sapiens) (UniProt Q8NFD2); conditions: Compound concentration 1000.0 nM
[14] = system: Phosphatidylinositol 4,5-bisphosphate 3-kinase catalytic subunit alpha isoform (Homo sapiens), P42336 [H1047L]; conditions: Compound concentration 1000.0 nM
[15] = biological target: Serine/threonine-protein kinase Chk1 (Homo sapiens) (UniProt O14757); conditions: Compound concentration 1000.0 nM
[16] = biological target: Beta-adrenergic receptor kinase 1 (Homo sapiens) (UniProt P25098); conditions: Compound concentration 1000.0 nM
[17] = biological target: Serine/threonine-protein kinase PAK 3 (Homo sapiens) (UniProt O75914); conditions: Compound concentration 1000.0 nM
[18] = biological target: Serine/threonine-protein kinase 38-like (Homo sapiens) (UniProt Q9Y2H1); conditions: Compound concentration 1000.0 nM
[19] = biological target: Serine/threonine-protein kinase SIK2 (Homo sapiens) (UniProt Q9H0K1); conditions: Compound concentration 1000.0 nM
[20] = system: Receptor-type tyrosine-protein kinase FLT3 (Homo sapiens), P36888 [D835Y]; conditions: Compound concentration 1000.0 nM
[21] = biological target: Mitogen-activated protein kinase 6 (Homo sapiens) (UniProt Q16659); conditions: Compound concentration 1000.0 nM
[22] = biological target: Serine/threonine-protein kinase tousled-like 1 (Homo sapiens) (UniProt Q9UKI8); conditions: Compound concentration 1000.0 nM
[23] = biological target: Casein kinase I isoform gamma-2 (Homo sapiens) (UniProt P78368); conditions: Compound concentration 1000.0 nM
[24] = biological target: Calcium/calmodulin-dependent protein kinase type 1B (Homo sapiens) (UniProt Q6P2M8); conditions: Compound concentration 1000.0 nM
[25] = biological target: Serine/threonine-protein kinase WNK2 (Homo sapiens) (UniProt Q9Y3S1); conditions: Compound concentration 1000.0 nM
[26] = biological target: SNF-related serine/threonine-protein kinase (Homo sapiens) (UniProt Q9NRH2); conditions: Compound concentration 1000.0 nM
[27] = biological target: Inhibitor of nuclear factor kappa-B kinase subunit alpha (Homo sapiens) (UniProt O15111); conditions: Compound concentration 1000.0 nM
[28] = biological target: Serine/threonine-protein kinase TNNI3K (Homo sapiens) (UniProt Q59H18); conditions: Compound concentration 1000.0 nM
[29] = biological target: 3-phosphoinositide-dependent protein kinase 1 (Homo sapiens) (UniProt O15530); conditions: Compound concentration 1000.0 nM
[30] = biological target: Cyclin-dependent kinase 17 (Homo sapiens) (UniProt Q00537); conditions: Compound concentration 1000.0 nM
[31] = biological target: ALK tyrosine kinase receptor (Homo sapiens) (UniProt Q9UM73); conditions: Compound concentration 1000.0 nM
[32] = system: Proto-oncogene tyrosine-protein kinase receptor Ret (Homo sapiens), P07949 [M918T]; conditions: Compound concentration 1000.0 nM
[33] = biological target: Protein kinase C eta type (Homo sapiens) (UniProt P24723); conditions: Compound concentration 1000.0 nM
[34] = biological target: Phosphatidylinositol 4,5-bisphosphate 3-kinase catalytic subunit gamma isoform (Homo sapiens) (UniProt P48736); conditions: Compound concentration 1000.0 nM
[35] = system: Epidermal growth factor receptor (Homo sapiens), P00533 [T790M]; conditions: Compound concentration 1000.0 nM
[36] = biological target: Serine/threonine-protein kinase 32A (Homo sapiens) (UniProt Q8WU08); conditions: Compound concentration 1000.0 nM
[37] = biological target: Muscarinic acetylcholine receptor M3 (Homo sapiens) (UniProt P20309); conditions: Compound concentration 10.0 uM
[38] = biological target: Serine/threonine-protein kinase 36 (Homo sapiens) (UniProt Q9NRP7); conditions: Compound concentration 1000.0 nM
[39] = biological target: Mitogen-activated protein kinase kinase kinase 5 (Homo sapiens) (UniProt Q99683); conditions: Compound concentration 1000.0 nM
[40] = biological target: Activin receptor type-2A (Homo sapiens) (UniProt P27037); conditions: Compound concentration 1000.0 nM
[41] = biological target: Ribosomal protein S6 kinase alpha-3 (Homo sapiens) (UniProt P51812); conditions: Compound concentration 1000.0 nM
[42] = biological target: Dual specificity protein kinase CLK1 (Homo sapiens) (UniProt P49759); conditions: Compound concentration 1000.0 nM
[43] = biological target: Serine/threonine-protein kinase LATS1 (Homo sapiens) (UniProt O95835); conditions: Compound concentration 1000.0 nM
[44] = system: Epidermal growth factor receptor (Homo sapiens), P00533 [UNDEFINED MUTATION]; conditions: Compound concentration 1000.0 nM
[45] = biological target: MAP kinase-interacting serine/threonine-protein kinase 1 (Homo sapiens) (UniProt Q9BUB5); conditions: Compound concentration 1000.0 nM

Sequence of Sigma intracellular receptor 2 (Q5BJF2 whole entry): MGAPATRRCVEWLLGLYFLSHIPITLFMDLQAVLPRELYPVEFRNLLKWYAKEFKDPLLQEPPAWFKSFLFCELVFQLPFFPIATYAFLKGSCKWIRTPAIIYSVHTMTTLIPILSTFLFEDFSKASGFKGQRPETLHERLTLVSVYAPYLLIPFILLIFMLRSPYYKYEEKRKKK
Sequence of Ankyrin repeat and protein kinase domain-containing protein 1 (Homo sapiens) (Q8NFD2 whole entry, the tested form may be a part, canonical isoform): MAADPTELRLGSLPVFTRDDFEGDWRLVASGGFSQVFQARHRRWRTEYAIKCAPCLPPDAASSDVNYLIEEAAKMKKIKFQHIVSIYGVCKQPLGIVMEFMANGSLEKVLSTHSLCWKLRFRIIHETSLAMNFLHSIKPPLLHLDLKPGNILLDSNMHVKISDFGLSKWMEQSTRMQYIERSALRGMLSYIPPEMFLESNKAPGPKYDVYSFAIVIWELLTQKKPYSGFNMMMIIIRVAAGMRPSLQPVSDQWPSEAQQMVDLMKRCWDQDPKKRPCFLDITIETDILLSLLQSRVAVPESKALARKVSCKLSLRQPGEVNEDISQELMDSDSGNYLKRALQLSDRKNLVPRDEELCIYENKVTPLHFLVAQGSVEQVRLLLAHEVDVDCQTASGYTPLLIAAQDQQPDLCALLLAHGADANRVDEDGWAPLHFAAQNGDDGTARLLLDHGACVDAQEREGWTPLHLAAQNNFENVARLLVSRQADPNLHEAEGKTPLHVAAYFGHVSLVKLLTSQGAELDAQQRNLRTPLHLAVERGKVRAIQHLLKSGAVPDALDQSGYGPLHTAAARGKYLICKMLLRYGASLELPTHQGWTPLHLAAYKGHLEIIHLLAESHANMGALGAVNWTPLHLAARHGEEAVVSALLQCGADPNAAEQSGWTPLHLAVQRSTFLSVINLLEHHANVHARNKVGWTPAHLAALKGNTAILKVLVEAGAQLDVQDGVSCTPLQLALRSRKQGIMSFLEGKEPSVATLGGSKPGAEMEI
Sequence of Activin receptor type-2A (Homo sapiens) (P27037 whole entry): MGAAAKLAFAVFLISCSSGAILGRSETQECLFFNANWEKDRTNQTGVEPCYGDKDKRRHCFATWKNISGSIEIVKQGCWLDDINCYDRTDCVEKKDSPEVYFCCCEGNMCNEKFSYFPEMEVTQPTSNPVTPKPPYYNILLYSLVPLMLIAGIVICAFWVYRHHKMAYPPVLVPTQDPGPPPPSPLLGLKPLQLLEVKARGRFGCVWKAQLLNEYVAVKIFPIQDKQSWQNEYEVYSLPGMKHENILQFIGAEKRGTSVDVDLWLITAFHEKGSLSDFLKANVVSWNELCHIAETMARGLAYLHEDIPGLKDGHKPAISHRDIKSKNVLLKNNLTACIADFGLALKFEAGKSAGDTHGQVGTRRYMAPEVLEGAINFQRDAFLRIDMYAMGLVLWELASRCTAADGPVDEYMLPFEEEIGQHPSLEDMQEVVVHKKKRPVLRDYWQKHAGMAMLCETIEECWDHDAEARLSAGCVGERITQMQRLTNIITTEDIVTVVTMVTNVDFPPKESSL
Sequence of Hepatocyte growth factor receptor (Homo sapiens) (P08581 whole entry): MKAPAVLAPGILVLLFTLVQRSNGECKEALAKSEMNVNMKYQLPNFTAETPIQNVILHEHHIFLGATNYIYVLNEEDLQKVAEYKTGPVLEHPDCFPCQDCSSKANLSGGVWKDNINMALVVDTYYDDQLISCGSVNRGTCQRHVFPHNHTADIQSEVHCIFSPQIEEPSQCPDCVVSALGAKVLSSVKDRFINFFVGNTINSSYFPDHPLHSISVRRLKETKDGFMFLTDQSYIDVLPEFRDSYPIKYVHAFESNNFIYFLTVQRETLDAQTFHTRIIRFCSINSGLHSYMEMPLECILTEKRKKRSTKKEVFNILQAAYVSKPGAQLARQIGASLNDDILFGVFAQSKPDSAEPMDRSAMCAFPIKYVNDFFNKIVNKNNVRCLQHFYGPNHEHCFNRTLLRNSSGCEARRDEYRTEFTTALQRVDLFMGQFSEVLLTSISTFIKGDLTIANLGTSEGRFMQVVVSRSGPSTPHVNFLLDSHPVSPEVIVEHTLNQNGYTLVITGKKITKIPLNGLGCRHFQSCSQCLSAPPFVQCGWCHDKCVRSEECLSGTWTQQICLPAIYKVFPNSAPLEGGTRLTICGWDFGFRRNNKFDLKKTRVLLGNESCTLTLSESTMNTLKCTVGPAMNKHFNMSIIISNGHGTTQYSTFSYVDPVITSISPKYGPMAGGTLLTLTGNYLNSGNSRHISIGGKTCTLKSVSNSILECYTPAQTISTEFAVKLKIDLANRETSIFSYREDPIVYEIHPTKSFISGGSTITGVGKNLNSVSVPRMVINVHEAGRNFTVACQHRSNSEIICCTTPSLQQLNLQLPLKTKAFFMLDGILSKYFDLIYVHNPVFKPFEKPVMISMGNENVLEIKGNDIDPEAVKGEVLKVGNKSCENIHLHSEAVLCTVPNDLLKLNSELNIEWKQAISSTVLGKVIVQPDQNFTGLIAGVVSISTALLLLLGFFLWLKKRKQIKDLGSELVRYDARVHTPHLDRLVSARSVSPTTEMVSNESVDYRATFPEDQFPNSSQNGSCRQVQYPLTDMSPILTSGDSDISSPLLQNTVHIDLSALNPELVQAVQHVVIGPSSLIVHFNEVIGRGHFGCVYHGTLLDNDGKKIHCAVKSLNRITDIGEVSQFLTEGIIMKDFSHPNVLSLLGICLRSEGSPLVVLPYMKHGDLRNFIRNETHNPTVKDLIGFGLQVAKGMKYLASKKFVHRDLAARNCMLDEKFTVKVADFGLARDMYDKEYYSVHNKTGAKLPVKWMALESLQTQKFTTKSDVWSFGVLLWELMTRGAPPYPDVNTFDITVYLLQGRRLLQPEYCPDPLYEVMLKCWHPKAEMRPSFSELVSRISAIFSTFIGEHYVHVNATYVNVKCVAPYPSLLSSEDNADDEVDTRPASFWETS
Sequence of Serine/threonine-protein kinase SIK2 (Homo sapiens) (Q9H0K1 whole entry, looked up): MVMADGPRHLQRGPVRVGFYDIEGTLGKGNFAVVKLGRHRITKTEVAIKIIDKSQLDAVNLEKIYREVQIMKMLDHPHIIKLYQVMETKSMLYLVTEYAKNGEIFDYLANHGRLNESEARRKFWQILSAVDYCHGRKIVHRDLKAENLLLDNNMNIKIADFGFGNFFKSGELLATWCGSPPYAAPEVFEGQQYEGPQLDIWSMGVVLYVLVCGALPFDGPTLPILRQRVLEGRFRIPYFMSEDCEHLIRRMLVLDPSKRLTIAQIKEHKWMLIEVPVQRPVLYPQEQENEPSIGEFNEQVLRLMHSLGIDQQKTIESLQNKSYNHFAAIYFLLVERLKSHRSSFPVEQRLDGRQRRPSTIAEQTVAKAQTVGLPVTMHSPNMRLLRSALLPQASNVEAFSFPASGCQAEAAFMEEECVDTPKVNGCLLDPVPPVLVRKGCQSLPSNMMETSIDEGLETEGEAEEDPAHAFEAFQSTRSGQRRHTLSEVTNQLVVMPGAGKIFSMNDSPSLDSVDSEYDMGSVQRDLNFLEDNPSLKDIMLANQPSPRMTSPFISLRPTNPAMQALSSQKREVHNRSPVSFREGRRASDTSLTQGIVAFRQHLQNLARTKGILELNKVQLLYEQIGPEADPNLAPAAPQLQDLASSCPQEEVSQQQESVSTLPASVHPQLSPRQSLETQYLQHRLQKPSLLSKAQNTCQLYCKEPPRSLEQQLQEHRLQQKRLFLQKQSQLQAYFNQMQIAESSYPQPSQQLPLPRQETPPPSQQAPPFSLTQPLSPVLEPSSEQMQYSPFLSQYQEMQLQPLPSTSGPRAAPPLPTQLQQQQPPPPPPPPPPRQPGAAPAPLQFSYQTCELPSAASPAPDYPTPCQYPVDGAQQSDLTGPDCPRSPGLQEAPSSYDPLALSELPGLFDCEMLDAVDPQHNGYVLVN
Sequence of Serine/threonine-protein kinase Chk1 (Homo sapiens) (O14757 whole entry): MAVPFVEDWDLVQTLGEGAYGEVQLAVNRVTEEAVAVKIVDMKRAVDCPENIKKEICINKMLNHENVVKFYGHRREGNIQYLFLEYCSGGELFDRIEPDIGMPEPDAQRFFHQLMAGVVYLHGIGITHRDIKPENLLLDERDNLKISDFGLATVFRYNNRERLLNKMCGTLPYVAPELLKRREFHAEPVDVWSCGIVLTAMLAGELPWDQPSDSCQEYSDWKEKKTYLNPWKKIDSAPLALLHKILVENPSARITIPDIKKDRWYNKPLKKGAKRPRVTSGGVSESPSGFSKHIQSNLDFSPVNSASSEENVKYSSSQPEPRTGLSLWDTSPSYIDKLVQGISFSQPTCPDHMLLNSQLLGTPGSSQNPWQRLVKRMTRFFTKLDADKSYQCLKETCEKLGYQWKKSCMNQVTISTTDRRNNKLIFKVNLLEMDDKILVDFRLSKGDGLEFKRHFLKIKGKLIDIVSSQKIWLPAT
Sequence of Dual specificity protein kinase CLK1 (Homo sapiens) (P49759 whole entry, looked up): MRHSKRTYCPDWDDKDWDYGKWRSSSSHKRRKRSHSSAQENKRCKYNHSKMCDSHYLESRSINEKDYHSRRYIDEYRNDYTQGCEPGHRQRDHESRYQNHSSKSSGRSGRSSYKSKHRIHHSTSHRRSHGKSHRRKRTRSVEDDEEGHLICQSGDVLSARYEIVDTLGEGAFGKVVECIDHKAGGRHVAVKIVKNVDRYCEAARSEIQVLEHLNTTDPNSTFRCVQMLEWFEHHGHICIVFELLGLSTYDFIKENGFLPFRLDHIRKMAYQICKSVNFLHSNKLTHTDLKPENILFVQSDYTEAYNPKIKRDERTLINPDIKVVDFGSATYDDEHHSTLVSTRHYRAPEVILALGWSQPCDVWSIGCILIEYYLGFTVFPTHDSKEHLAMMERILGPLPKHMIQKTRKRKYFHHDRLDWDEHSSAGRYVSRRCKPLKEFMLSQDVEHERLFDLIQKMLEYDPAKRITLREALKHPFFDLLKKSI
Sequence of Aurora kinase C (Homo sapiens) (Q9UQB9 whole entry): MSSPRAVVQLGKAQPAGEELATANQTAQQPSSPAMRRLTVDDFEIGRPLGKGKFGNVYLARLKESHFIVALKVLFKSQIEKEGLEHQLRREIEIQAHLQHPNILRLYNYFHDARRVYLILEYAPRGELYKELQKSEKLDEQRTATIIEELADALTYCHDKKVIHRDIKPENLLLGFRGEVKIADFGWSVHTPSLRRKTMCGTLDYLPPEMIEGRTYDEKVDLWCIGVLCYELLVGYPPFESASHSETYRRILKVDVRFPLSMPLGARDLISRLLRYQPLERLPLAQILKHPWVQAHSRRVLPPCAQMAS

COc1cc(-c2cn([C@H]3CCc4ccccc4N(CC(F)(F)F)C3=O)nn2)ccc1-n1ccc(C)n1
residual activity [1]: 100% | residual activity [2]: 100% | IC50 [3]: > 10000 nM (not active) | residual activity [4]: 78% | residual activity [5]: 99% | inhibition [6]: -1.39% | residual activity [7]: 100% | residual activity [8]: 100% | residual activity [9]: 100% | residual activity [10]: 65% | Ki ([11]; read-out: Ki): 835 nM | Ki ([11]; read-out: pKi (converted)): 741 nM | residual activity [12]: 95% | residual activity [13]: 78% | residual activity [14]: 97% | residual activity [15]: 100% | residual activity [16]: 87% | residual activity [17]: 100% | residual activity [18]: 75% | residual activity [19]: 100% | residual activity [20]: 92% | residual activity [21]: 100% | residual activity [22]: 84% | residual activity [23]: 100% | residual activity [24]: 100% | residual activity [25]: 87% | residual activity [26]: 99% | residual activity [27]: 98% | residual activity [28]: 100% | residual activity [29]: 100% | residual activity [30]: 100% | residual activity [31]: 92% | residual activity [32]: 100% | residual activity [33]: 73% | residual activity [34]: 67% | residual activity [35]: 59% | residual activity [36]: 97% | inhibition [37]: -6.94% | residual activity [38]: 79% | residual activity [39]: 100% | residual activity [40]: 100% | residual activity [41]: 100% | residual activity [42]: 87% | residual activity [43]: 71% | residual activity [44]: 100% | residual activity [45]: 78%

COc1cc(-c2cn([C@H]3CCc4c(F)cccc4N(CC(F)(F)F)C3=O)nn2)ccc1-n1cnc(C)c1
residual activity [1]: 100% | residual activity [2]: 100% | IC50 [3]: 31 nM (active) | residual activity [4]: 82% | residual activity [5]: 100% | inhibition [6]: -4.64% | residual activity [7]: 100% | residual activity [8]: 100% | residual activity [9]: 100% | residual activity [10]: 82% | Ki ([11]; read-out: Ki): 890 nM | residual activity [12]: 100% | residual activity [13]: 100% | residual activity [14]: 96% | residual activity [15]: 100% | residual activity [16]: 100% | residual activity [17]: 100% | residual activity [18]: 78% | residual activity [19]: 100% | residual activity [20]: 86% | residual activity [21]: 100% | residual activity [22]: 100% | residual activity [23]: 100% | residual activity [24]: 100% | residual activity [25]: 53% | residual activity [26]: 100% | residual activity [27]: 100% | residual activity [28]: 100% | residual activity [29]: 93% | residual activity [30]: 84% | residual activity [31]: 100% | residual activity [32]: 100% | residual activity [33]: 100% | residual activity [34]: 84% | residual activity [35]: 83% | residual activity [36]: 100% | inhibition [37]: -4.42% | residual activity [38]: 100% | residual activity [39]: 100% | residual activity [40]: 0% | residual activity [41]: 100% | residual activity [42]: 77% | residual activity [43]: 93% | residual activity [44]: 100% | residual activity [45]: 87%
